Test results taken from patent publication US20230295197A1, “STAT5 and STAT6 Degraders and Uses Thereof” (REGENTS OF THE UNIVERSITY OF MICHICAN, priority 2022, published 2023).
Where two headings read alike, the source gives them in different places.

Target: T1, STAT6 (Homo sapiens, UniProt P42226)
T1 construct: endogenous in cells; host or cells: MOLM-16, KU-812, SKNO1, MB231, L1236
T1 sequence (P42226 1-847): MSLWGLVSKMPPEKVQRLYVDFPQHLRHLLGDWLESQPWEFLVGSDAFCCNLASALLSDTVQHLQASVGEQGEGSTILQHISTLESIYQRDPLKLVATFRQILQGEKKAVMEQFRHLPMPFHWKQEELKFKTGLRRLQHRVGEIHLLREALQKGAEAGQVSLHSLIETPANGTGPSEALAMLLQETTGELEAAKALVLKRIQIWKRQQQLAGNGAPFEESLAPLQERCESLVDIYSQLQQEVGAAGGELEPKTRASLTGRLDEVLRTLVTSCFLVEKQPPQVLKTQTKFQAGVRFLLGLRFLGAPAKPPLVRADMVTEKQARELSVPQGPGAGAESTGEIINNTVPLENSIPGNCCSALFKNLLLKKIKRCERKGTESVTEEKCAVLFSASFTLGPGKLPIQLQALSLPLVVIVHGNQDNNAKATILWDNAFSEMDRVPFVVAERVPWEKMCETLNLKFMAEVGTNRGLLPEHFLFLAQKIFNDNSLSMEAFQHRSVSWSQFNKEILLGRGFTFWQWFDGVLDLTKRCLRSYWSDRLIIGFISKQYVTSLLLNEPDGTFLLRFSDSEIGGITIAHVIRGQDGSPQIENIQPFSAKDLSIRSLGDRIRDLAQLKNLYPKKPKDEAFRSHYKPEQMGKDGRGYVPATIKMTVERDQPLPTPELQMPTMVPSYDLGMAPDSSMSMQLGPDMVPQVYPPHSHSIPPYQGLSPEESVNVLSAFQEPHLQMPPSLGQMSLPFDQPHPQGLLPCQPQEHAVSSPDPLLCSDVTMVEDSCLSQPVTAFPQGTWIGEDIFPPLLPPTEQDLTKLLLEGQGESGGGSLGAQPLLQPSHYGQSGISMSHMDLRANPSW
Experiment: Immunoblotting (Western blot) analysis of STAT6 degradation efficiency of degraders in treated cells
Type: cell-based
How it was run: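 Protein levels of STAT5 and STAT6 were assessed in cells cultured at 37 °C in 10% FBS medium after compound exposure, by quantitative fluorescent Western blotting normalised to equal loading and referenced to GAPDH.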

[1] = MOLM-16 cells, class symbols, read-out: DC50 S6 MOLM-16
[2] = L1236 cells, read-out: DC50 S6 L1236

| Compound | DC50 [1] | DC50 [2] | DC50 (MOLM-16 cells, numeric bound, read-out: DC50 S6 MOLM-16) |
| --- | --- | --- | --- |
| CC(C)(C)[C@H](NC(=O)c1cc2cc(C(F)(F)P(=O)(O)O)ccc2s1)C(=O)N1Cc2cc(OCC(=O)NCCCCCCCCCC#Cc3cccc4c3C(=O)N(C3CCC(=O)NC3=O)C4=O)ccc2C[C@H]1C(=O)N1CCC[C@H](c2ccccc2)C1 (stereo partly drawn) [Compound 561, ((2-(((2S)-1-((3S)-7-(2-((11-(2-(2,6-dioxopiperidin-3-yl)-1,3-dioxoisoindolin-4-yl)undec-10-yn-1-yl)amino)-2-oxoethoxy)-3-((R)-3-phenylpiperidine-1-carbonyl)-3,4-dihydroisoquinolin-2(1H)-yl)-3,3-dimethyl-1-oxobutan-2-yl)carbamoyl)benzo[b]thiophen-5-yl)difluoromethyl)phosphonic acid] | > 10 µM |  |  |
| CC(C)(C)[C@H](NC(=O)c1cc2cc(C(F)(F)P(=O)(O)O)ccc2s1)C(=O)N1Cc2cc(OCC(=O)NCCCC#Cc3cccc4c3C(=O)N(C3CCC(=O)NC3=O)C4=O)ccc2C[C@H]1C(=O)N1CCO[C@H](c2ccccc2)C1 (stereo partly drawn) [Compound 539, ((2-(((2S)-1-((3S)-7-(2-((5-(2-(2,6-dioxopiperidin-3-yl)-1,3-dioxoisoindolin-4-yl)pent-4-yn-1-yl)amino)-2-oxoethoxy)-3-((R)-2-phenylmorpholine-4-carbonyl)-3,4-dihydroisoquinolin-2(1H)-yl)-3,3-dimethyl-1-oxobutan-2-yl)carbamoyl)benzo[b]thiophen-5-yl)difluoromethyl)phosphonic acid] | > 10 µM |  |  |
| Cc1ncsc1-c1ccc([C@H](C)NC(=O)[C@@H]2C[C@@H](O)CN2C(=O)[C@@H](NC(=O)CCCCCCCNC(=O)CO[C@H]2C[C@@H](C(=O)N3CCO[C@H](c4ccccc4)C3)N(C(=O)[C@@H](NC(=O)c3cc4cc(C(F)(F)P(=O)(O)O)ccc4s3)C(C)(C)C)C2)C(C)(C)C)cc1 [Compound 431, (difluoro(2-(((S)-1-((2S,4S)-4-(2-((8-(((S)-1-((2S,4R)-4-hydroxy-2-(((S)-1-(4-(4-methylthiazol-5-yl)phenyl)ethyl)carbamoyl)pyrrolidin-1-yl)-3,3-dimethyl-1-oxobutan-2-yl)amino)-8-oxooctyl)amino)-2-oxoethoxy)-2-((R)-2-phenylmorpholine-4-carbonyl)pyrrolidin-1-yl)-3,3-dimethyl-1-oxobutan-2-yl)carbamoyl)benzo[b]thiophen-5-yl)methyl)phosphonic acid] | > 10 µM | > 10 µM |  |
| CC(C)(C)[C@H](NC(=O)c1cc2cc(C(F)(F)P(=O)(O)O)ccc2s1)C(=O)N1C[C@@H](OCCCCCCCCCCC#Cc2cccc3c2CN(C2CCC(=O)NC2=O)C3=O)C[C@H]1C(=O)N1CCO[C@H](c2ccccc2)C1 (stereo partly drawn) [Compound 585, ((2-(((2S)-1-((2S,4S)-4-((12-(2-(2,6-dioxopiperidin-3-yl)-1-oxoisoindolin-4-yl)dodec-11-yn-1-yl)oxy)-2-((R)-2-phenylmorpholine-4-carbonyl)pyrrolidin-1-yl)-3,3-dimethyl-1-oxobutan-2-yl)carbamoyl)benzo[b]thiophen-5-yl)difluoromethyl)phosphonic acid] |  | > 10 µM | > 0.3 µM |
| Cc1ncsc1-c1ccc([C@H](C)NC(=O)[C@@H]2C[C@@H](O)CN2C(=O)[C@@H](NC(=O)CCCCCCNC(=O)CC(=O)N2CCN(C(=O)[C@@H](NC(=O)c3cc4cc(C(F)(F)P(=O)(O)O)ccc4s3)C(C)(C)C)[C@H](C(=O)N3CCO[C@H](c4ccccc4)C3)C2)C(C)(C)C)cc1 [Compound 448, (difluoro(2-(((S)-1-((S)-4-(3-((7-(((S)-1-((2S,4R)-4-hydroxy-2-(((S)-1-(4-(4-methylthiazol-5-yl)phenyl)ethyl)carbamoyl)pyrrolidin-1-yl)-3,3-dimethyl-1-oxobutan-2-yl)amino)-7-oxoheptyl)amino)-3-oxopropanoyl)-2-((R)-2-phenylmorpholine-4-carbonyl)piperazin-1-yl)-3,3-dimethyl-1-oxobutan-2-yl)carbamoyl)benzo[b]thiophen-5-yl)methyl)phosphonic acid] | > 10 µM | > 10 µM |  |
| CC(C)(C)[C@H](NC(=O)c1cc2cc(C(F)(F)P(=O)(O)O)ccc2s1)C(=O)N1C[C@@H](OCC(=O)NCCCCC#Cc2cccc3c2C(=O)N(C2CCC(=O)NC2=O)C3=O)C[C@H]1C(=O)N1CCO[C@H](c2ccccc2)C1 (stereo partly drawn) [Compound 485, ((2-(((2S)-1-((2S,4S)-4-(2-((6-(2-(2,6-dioxopiperidin-3-yl)-1,3-dioxoisoindolin-4-yl)hex-5-yn-1-yl)amino)-2-oxoethoxy)-2-((R)-2-phenylmorpholine-4-carbonyl)pyrrolidin-1-yl)-3,3-dimethyl-1-oxobutan-2-yl)carbamoyl)benzo[b]thiophen-5-yl)difluoromethyl)phosphonic acid] | > 10 µM |  |  |
| CC(C)(C)[C@H](NC(=O)c1cc2cc(C(F)(F)P(=O)(O)O)ccc2s1)C(=O)N1C[C@@H](OCC(=O)NCCCCCCCCCC#Cc2cccc3c2C(=O)N(C2CCC(=O)NC2=O)C3=O)C[C@H]1C(=O)N1CCO[C@H](c2ccccc2)C1 (stereo partly drawn) [Compound 491, ((2-(((2S)-1-((2S,4S)-4-(2-((11-(2-(2,6-dioxopiperidin-3-yl)-1,3-dioxoisoindolin-4-yl)undec-10-yn-1-yl)amino)-2-oxoethoxy)-2-((R)-2-phenylmorpholine-4-carbonyl)pyrrolidin-1-yl)-3,3-dimethyl-1-oxobutan-2-yl)carbamoyl)benzo[b]thiophen-5-yl)difluoromethyl)phosphonic acid] | > 10 µM |  |  |
| CC(C)(C)[C@H](NC(=O)c1cc2cc(C(F)(F)P(=O)(O)O)ccc2s1)C(=O)N1Cc2cc(OCC(=O)NCCCCCCCCC#Cc3cccc4c3C(=O)N(C3CCC(=O)NC3=O)C4=O)ccc2C[C@H]1C(=O)N1CCC[C@H](c2ccccc2)C1 (stereo partly drawn) [Compound 559, ((2-(((2S)-1-((3S)-7-(2-((10-(2-(2,6-dioxopiperidin-3-yl)-1,3-dioxoisoindolin-4-yl)dec-9-yn-1-yl)amino)-2-oxoethoxy)-3-((R)-3-phenylpiperidine-1-carbonyl)-3,4-dihydroisoquinolin-2(1H)-yl)-3,3-dimethyl-1-oxobutan-2-yl)carbamoyl)benzo[b]thiophen-5-yl)difluoromethyl)phosphonic acid] | > 10 µM |  |  |
| Cc1ncsc1-c1ccc([C@H](C)NC(=O)[C@@H]2C[C@@H](O)CN2C(=O)[C@@H](NC(=O)CCCCCCCCCNC(=O)CC(=O)N2CCN(C(=O)[C@@H](NC(=O)c3cc4cc(C(F)(F)P(=O)(O)O)ccc4s3)C(C)(C)C)[C@H](C(=O)N3CCC[C@H](c4ccccc4)C3)C2)C(C)(C)C)cc1 [Compound 460, (difluoro(2-(((S)-1-((S)-4-(3-((10-(((S)-1-((2S,4R)-4-hydroxy-2-(((S)-1-(4-(4-methylthiazol-5-yl)phenyl)ethyl)carbamoyl)pyrrolidin-1-yl)-3,3-dimethyl-1-oxobutan-2-yl)amino)-10-oxodecyl)amino)-3-oxopropanoyl)-2-((R)-3-phenylpiperidine-1-carbonyl)piperazin-1-yl)-3,3-dimethyl-1-oxobutan-2-yl)carbamoyl)benzo[b]thiophen-5-yl)methyl)phosphonic acid] | > 10 µM | > 10 µM |  |
